Assay results as given in patent publication US12302928B2, “Application of acylated derivative of amino acid in preparation of animal feed additive” (ANIPHA TECHNOLOGIES PTY LTD, priority 2018, dated 2025).
Like-named read-outs stand apart in the source and are kept apart here.

Legend:
Format in all cases: in vivo
[1] = tested on: Duroc×Landrace×Yorkshire cross-bred bacon-type pigs; assay: Breeding test B1: effect on the production performance of pigs; conditions: 400 ppm in basal daily ration, 28 days; for ADFI (average daily feed intake) / ADG (average daily gain): 65-day-old pigs; for FCR (feed conversion ratio): ADFI/ADG
Source text: 270 65-day-old Duroc×Landrace×Yorkshire cross-bred bacon-type pigs with similar body weight were randomly divided into 9 groups, with 3 replications per group and 10 pigs (half of male and female) per replication. The pigpens and utensils were sterilized before the test. During the test period, the test pigs were free-stall housed in the same pigpen under the same feeding and management conditions. During the test period, the test pigs were free to drink water and eat feed, and test pigs were fed twice a day. The test groups were the control group (group I) and the test groups II˜IX, respectively. Wherein the basal daily ration was only given for the control group, and 400 ppm of different acylated derivative of the aminobutyric acid was added into the basal daily ration for the test groups II˜IX.
No other antioxidant ingredients and growth promoters were added for the test groups during the entire feeding process. The test period was 28 days, with each repetition as a unit, the test pigs were weighed at the age of 93 days without stopping water and feed for 12 hours; the average daily feed intake (ADFI, g/d*each pig), the average daily gain (ADG, g/d*each pig) and the feed conversion ratio (FCR) were calculated for each of the test groups. The formula for calculation was as follows: Average daily feed intake=(total amount of feed−remaining amount of feed)/(number of days of test×number of pigs per repetition); Average daily gain=(average body weight at the end of the test−average body weight at the beginning of the test)/number of days of test; Feed conversion ratio=average daily feed intake/average daily gain.

grass carps = assay: Breeding test B4: use in fish feed (growth of grass carps); conditions: for change in vivo at 150 ppm, 150 µg/mL: po, 1344 h, read-out: Weight gain rate
Description: The test fishes used were grass carps, and the test was carried out in the aquaculture farm of the test field of Guangzhou Insighter. Healthy, lively, and uniform grass carp fingerlings were fed in large cages for 4 weeks before being used for formal breeding test. The experimental system was a small floating cage. Both the small cage and the temporary cage were placed in a 3500 m^2 pond of the test field, the depth of the pond was about 1.5 m, and the water of the pond was fully aerated in the bottom of the pond. During the test, 360 grass carps that were hungry for 1 day were randomly divided into 9 groups, with 4 replications per group and 10 grass carps per replication. All of the grass carps were weighed, and then were randomly placed in 36 cages and fed with different test feeds. The test feeds were self-prepared, and 150 ppm of different acylated derivatives of the aminobutyric acid were added into the basal feed for different test groups, respectively. The test groups were the control group (group I) and the test groups IIIX, respectively. The basal daily ration was only given for the control group, and 150 ppm of different acylated derivatives of the aminobutyric acid were added into the basal daily ration for the test groups IIIX.
The test adopted time-limited artificial feeding, and the feeding amount was adjusted once a week. The feeding rate of the control group and the feeding rate of the test groups (according to the initial body weight) were exactly the same, and the grass carps were fed twice a day (7:30 and 15:00). The test period was 8 weeks.

Jingbai laying hens = assay: Breeding test B2: effect on the production performance of laying hens; conditions: 150 ppm in basal daily ration, 158 days; for EPR (egg production rate): 147-day-old laying hens
Source text: The test adopted a single-factor random design. 1,080 147-day-old Jingbai laying hens with similar body weight were selected and randomly divided into 9 groups, with 6 replications per group and 20 Jingbai laying hens per replication. The poultry houses and utensils were sterilized before the test. During the test period, the Jingbai laying hens were cage cultured in the same poultry house under the same feeding and management conditions. The basal daily ration was mainly corn-soybean meal, and no other antioxidant ingredients and growth promoters were added additionally during the entire feeding process. The test groups were the control group (group I) and the test groups II˜IX, respectively. The basal daily ration was only given for the control group, and 150 ppm of different acylated derivatives of the aminobutyric acid were added into the basal daily ration for the test groups II˜IX. The pre-feeding period was 10 days, and the test period was 158 days. The test laying hens were free to drink water and eat feed, and were fed twice a day. The test takes each repetition as a unit, and records the total egg number, the egg production, and the feed intake every day, and calculates the egg production rate (EPR), the average daily feed intake (ADFI, g/d), the egg weight (EW, g) and the feed-to-egg ratio (FER) of the laying hens during the entire test. The formula for calculation was as follows: Egg production rate (%)=average daily total egg number/number of laying hens×100; Egg weight (g)=average daily total egg weight/average daily total egg number; Feed-to-egg ratio=average daily feed intake/egg weight.

[2] = tested on: yellow-feathered broilers; assay: Breeding test B3: effect on the production performance of broilers; conditions: 300 ppm in basal daily ration, 20 days; for ADFI (average daily feed intake): 1-day-old broilers; for FCR (feed conversion ratio): ADFI/ADG
Source text: The test adopted a single-factor random design. 1,080 1-day-old yellow-feathered broilers with similar body weight and the average weight of 50 g were selected and randomly divided into 9 groups, with 6 replications per group and 20 yellow-feathered broilers (half of male and female) per replication. The poultry houses and utensils were sterilized before the test. During the test period, the yellow-feathered broilers were housed in the same poultry house under the same feeding and management conditions. The basal daily ration was mainly corn-soybean meal, and no other antioxidant components and growth promoters were added additionally during the entire feeding process. The test groups were the control group (group I) and the test groups II˜IX, respectively. The basal daily ration was only given for the control group, and 300 ppm of different acylated derivatives of the aminobutyric acid were added into the basal daily ration for the test groups II˜IX.
The test period was 20 days. The test broilers were free to drink water and eat feed, and were fed twice a day. With each repetition as a unit, the test broilers were weighed at the age of 21 days (stopping feed for 12 hours, without stopping water), the feed consumption of test broilers were recorded, and the average daily feed intake (ADFI, g/d*each broiler), the average daily gain (ADG, g/d*each broiler) and feed conversion ratio (FCR) were calculated for each of the test groups. The formula for calculation was as follows: Feed conversion ratio (FCR)=average daily feed intake/average daily gain.

| SMILES | ADFI (average daily feed intake) [1] [g/d * each pig] | ADG (average daily gain) [1] [g/d * each pig] | FCR (feed conversion ratio) [1] | (FCR) (grass carps; 150 ppm in basal feed, 8 weeks) | Average final weight (grass carps; 150 ppm in basal feed, 8 weeks) [g] | change in vivo at 150 ppm, 150 µg/mL (grass carps; 150 ppm in basal feed, 8 weeks) [%] | ADFI (average daily feed intake) (Jingbai laying hens) [g/day] | EW (egg weight) (Jingbai laying hens) [g] | EPR (egg production rate) (Jingbai laying hens) [%] | ADG (average daily gain) [2] [g/d * each broiler] | ADFI (average daily feed intake) [2] [g/d * each broiler] | FCR (feed conversion ratio) [2] | change in vivo at 150 ppm, 150 µg/mL (grass carps) [%] |
| --- | --- | --- | --- | --- | --- | --- | --- | --- | --- | --- | --- | --- | --- |
| NCCCC(=O)NCCCC(=O)O [N-(γ-aminobutyryl)-γ-aminobutyric acid] | 1831 | 693 | 2.642 | 1.80 | 707 | 83.7 | 160 | 55.24 | 84.4 | 14.62 | 28.94 | 1.98 | – |
| CC(=O)NCCCC(=O)O [N-acetyl-γ-aminobutyric acid] | 1827 | 723 | 2.665 | 1.81 | 733 | 77.6 | 160 | 55.24 | 82.2 | 15.15 | 31.06 | 2.05 | – |
| NCC(=O)NCCCC(=O)O [N-glycyl-γ-aminobutyric acid] | 1728 | 651 | 2.655 | 1.75 | 755 | – | 161 | 55.61 | 82.9 | 13.02 | 26.17 | 2.01 | 78.2 |
| Nc1ccc(C(=O)NCCCC(=O)O)cc1 [N-p-aminobenzoyl-γ-aminobutyric acid] | 1643 | 632 | 2.601 | 1.84 | 713 | 79.2 | 161 | 55.31 | 82.6 | 12.42 | 25.84 | 2.08 | – |
| O=C(O)CCCNC(=O)c1ccc(Cl)cc1 [N-p-chlorobenzoyl-γ-aminobutyric acid] | 1675 | 642 | 2.610 | 1.77 | 730 | 81.5 | 160 | 55.07 | 81.4 | 12.32 | 24.88 | 2.02 | – |
| O=C(O)CCCNC(=O)c1ccc(O)cc1 [N-p-hydroxybenzoyl-γ-aminobutyric acid] | 1602 | 611 | 2.620 | 1.82 | 710 | 81.5 | 161 | 55.27 | 81.8 | 12.32 | 24.52 | 1.99 | – |
| Cc1ccc(C(=O)NCCCC(=O)O)cc1 [N-p-methylbenzoyl-γ-aminobutyric acid] | 1769 | 672 | 2.631 | 1.74 | 739 | 82.1 | 159 | 54.81 | 84.4 | 13.84 | 27.13 | 1.96 | – |
